Measurements: patent publication US8088806B2 (Achillion Pharmaceuticals, Inc., priority 2005, dated 2012)

These molecules were tested on HCV replicon (assay: Replicon based assay of HCV replication inhibition (NPT ELISA)). Settings: Hepatitis C virus, Huh-7, 72 h, Table I; Huh-7 HCV replicon-containing cells, three days; read-out: Activity.
Assay type: cell-based, Hepatitis C virus
How it was run: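 Huh-7 cells carrying a bicistronic HCV replicon (neo, EMCV-IRES-driven NS3–NS5B) treated overnight after seeding with usually 6 concentrations, 10 to 0.03 micromolar, for three days at 37° C without G418. Replication read as NPT level by captured ELISA; matched-DMSO wells and interferon alpha as controls.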

First: COc1ccc(Nc2nc(-c3c(C)nc4sccn34)cs2)cc1 [compound 165, N-(4-methoxyphenyl)-4-(6-methylimidazo[2,1-b]thiazol-5-yl)thiazol-2-amine]
Second: Fc1ccc(-c2csc(Nc3ccc(OC(F)(F)F)cc3)n2)c(F)c1 [compound 45, 4-(2,4-difluorophenyl)-N-(4-(trifluoromethoxy)phenyl)thiazol-2-amine]
The EC50 of the first is lower: less than 1000 nM for the first, greater than 10000 nM for the second. The first is the more potent here.

`Fc1ccc(-c2csc(Nc3cccc(OCc4ccccc4)c3)n2)cc1` [compound 27, N-(3-(benzyloxy)phenyl)-4-(4-fluorophenyl)thiazol-2-amine] and `Clc1ccc(-c2csc(Nc3cccc(Cc4ccccc4)c3)n2)cc1Cl` [compound 36, N-(3-benzylphenyl)-4-(3,4-dichlorophenyl)thiazol-2-amine] cannot be ordered by EC50: less than 1000 nM for the first, less than 1000 nM for the second.

`CCCCCOc1ccc(N(C(=O)c2cccnc2)c2nc(NC(=O)c3cccnc3)cs2)cc1C(F)(F)F` [compound 140, N-(2-(N-(3-(trifluoromethyl)-4-(pentyloxy)phenyl)nicotinamido)-thiazol-4-yl)nicotinamide] and `CCCCCOc1ccc(Nc2nc(-c3ccc(C(=O)N(C)CC(N)=O)nc3)cs2)cc1C(F)(F)F` [compound 221, 5-(2-(3-(trifluoromethyl)-4-(pentyloxy)phenylamino)thiazol-4-yl)-N-(carbamoylmethyl)-N-methylpyridine-2-carboxamide] cannot be ordered by EC50: less than 1000 nM for the first, less than 1000 nM for the second.

`CCCCCOc1ccc(Nc2ncc(Br)s2)cc1C(F)(F)F` [compound 9, 5-bromo-N-(3-(trifluoromethyl)-4-(pentyloxy)phenyl)thiazol-2-amine] and `CCCCCOc1ccc(Nc2nc(-c3ccc(CC(=O)O)cc3)c(C)s2)cc1C(F)(F)F` [compound 197, 2-(4-(2-(3-(trifluoromethyl)-4-(pentloxy)phenylamino)-5-methylthiazol-4-yl)phenyl)acetic acid] cannot be ordered by EC50: less than 1000 nM for the first, less than 1000 nM for the second.

`FC(F)(F)Oc1ccc(Nc2nc(-c3ccc(Cl)cc3)cs2)cc1` [compound 46, 4-(4-chlorophenyl)-N-(4-(trifluoromethoxy)phenyl)thiazol-2-amine] and `N#Cc1ccc(Nc2nc(-c3ccc(F)cc3)cs2)cc1` [compound 51, 4-(4-(4-fluorophenyl)thiazol-2-ylamino)benzonitrile] cannot be ordered by EC50: greater than 10000 nM for the first, greater than 10000 nM for the second.

Compared with `FC(F)(F)Oc1cccc(CNc2nc(-c3cccnc3)cs2)c1` [compound 76, N-(3-(trifluoromethoxy)benzyl)-4-(pyridin-3-yl)thiazol-2-amine], `CCCCCOc1ccc(Nc2nc(-c3cccc(F)c3)cs2)cc1F` [compound 174, N-(3-fluoro-4-(pentyloxy)phenyl)-4-(3-fluorophenyl)thiazol-2-amine] is lower in EC50: greater than 10000 nM for the first, less than 1000 nM for the second.

`CCCCCOc1ccc(Nc2nc(-c3cc(C(=O)OCC)no3)cs2)cc1C(F)(F)F` [compound 202, ethyl 5-(2-(3-(trifluoromethyl)-4-(pentyloxy)phenylamino)thiazol-4-yl)isoxazole-3-carboxylate] and `CCCCCOc1ccc(Nc2nc(-c3ccccc3Cl)cs2)cc1F` [compound 177, 4-(2-chlorophenyl)-N-(3-fluoro-4-(pentyloxy)phenyl)thiazol-2-amine] cannot be ordered by EC50: less than 1000 nM for the first, less than 1000 nM for the second.

Same assay, conditions: Hepatitis C virus, Huh-7, 72 h, Table III; Huh-7 HCV replicon-containing cells, three days; read-out: Activity

`CCCCCOc1ccc(Nc2nc(-c3cncnc3)cs2)cc1F` [compound 618, N-(3-fluoro-4-(pentyloxy)phenyl)-4-(pyrimidin-5-yl)thiazol-2-amine] and `CCCCCCCCOc1ccc(Nc2nc(-c3cncnc3)cs2)cc1C(F)(F)F` [compound 617, N-(3-(trifluoromethyl)-4-(octyloxy)phenyl)-4-(pyrimidin-5-yl)thiazol-2-amine] cannot be ordered by EC50: less than 1000 nM for the first, less than 1000 nM for the second.

`CCCCCCCCOc1ccc(Nc2nccs2)cc1` [compound 623, N-(4-(octyloxy)phenyl)thiazol-2-amine] and `CCCCCCCOc1ccc(Nc2nc(-c3ccc[n+]([O-])c3)cs2)cc1` [compound 525] cannot be ordered by EC50: less than 1000 nM for the first, less than 1000 nM for the second.

First: CCCCCCCc1ccc(Nc2nc(-c3ccc(OCC(=O)O)cc3)c(C)s2)cc1 [compound 562, 2-(4-(2-(4-heptylphenylamino)-5-methylthiazol-4-yl)phenoxy)acetic acid]
Second: CCCCCCCCN(C)c1ccc(Nc2nc(Cc3ccc(F)c(F)c3)cs2)cc1 [compound 612, N^1-(4-(3,4-difluorobenzyl)thiazol-2-yl)-N^4-methyl-N^4-octylbenzene-1,4-diamine]
The EC50 of the first is lower: less than 1000 nM for the first, greater than 10000 nM for the second. The first is the more potent here.

First: CCCCCOc1ccc(Nc2nc(Cc3ccc(F)c(F)c3)cs2)cc1C(F)(F)F [compound 607, 4-(3,4-difluorobenzyl)-N-(3-(trifluoromethyl)-4-(pentyloxy)phenyl)thiazol-2-amine]
Second: CCCCCCCCOc1ccc(Nc2nc(-c3ccsc3)cs2)cc1C(F)(F)F [compound 714, N-(3-(trifluoromethyl)-4-(octyloxy)phenyl)-4-(thiophen-3-yl)thiazol-2-amine]
The EC50 of the first is higher: 1000 to 10000 nM for the first, less than 1000 nM for the second. The second is the more potent here.

`CCCCCCCCOc1ccc(Nc2nc(-c3ccsc3C(N)=O)cs2)cc1C(F)(F)F` [compound 667, 3-(2-(3-(trifluoromethyl)-4-(octyloxy)phenylamino)thiazol-4-yl)thiophene-2-carboxamide] and `CCCCCCCCOc1ccc(Nc2nc(-c3ccc(NC(C)=O)nc3)cs2)cc1C(F)(F)F` [compound 678, N-(5-(2-(3-(trifluoromethyl)-4-(octyloxy)phenylamino)thiazol-4-yl)pyridin-2-yl)acetamide] cannot be ordered by EC50: less than 1000 nM for the first, less than 1000 nM for the second.

`CCCCCCCCOc1ccc(Nc2nc(-c3ccc4cc(OC)ccc4c3)cs2)cc1C(F)(F)F` [compound 707, N-(3-(trifluoromethyl)-4-(octyloxy)phenyl)-4-(2-methoxynaphthalen-6-yl)thiazol-2-amine] and `CCCCCCCCOc1ccc(Nc2nc(-c3cnc(Cl)c(C(=O)OC)c3)cs2)cc1C(F)(F)F` [compound 672, methyl 5-(2-(3-(trifluoromethyl)-4-(octyloxy)phenylamino)thiazol-4-yl)-2-chloropyridine-3-carboxylate] cannot be ordered by EC50: less than 1000 nM for the first, less than 1000 nM for the second.

For `CCCCCN(C)c1ccc(Nc2nc(-c3ccc(F)nc3)cs2)cc1C(F)(F)F` [compound 529, 2-(trifluoromethyl)-N4-(4-(6-fluoropyridin-3-yl)thiazol-2-yl)-N1-methyl-N1-pentylbenzene-1,4-diamine], the EC50 was less than 1000 nM.

Same assay, conditions: Hepatitis C virus, replicon based assay of HCV replication inhibition; Table II; read-out: Activity

Compared with `CCCCCCCOc1ccc(Nc2nc(-c3c(C)cc(C)nc3C)cs2)cc1` [compound 446, N-(4-(heptyloxy)phenyl)-4-(2,4,6-trimethylpyridin-3-yl)thiazol-2-amine], `CCCCCCCCOc1ccc(Nc2nc(-c3ccc(C#N)nc3)cs2)cc1` [compound 512, 5-(2-(4-(octyloxy)phenylamino)thia-zol-4-yl)pyridine-2-carbonitrile] is lower in EC50: greater than 10000 nM for the first, less than 1000 nM for the second.

First: CCCCCCCCOc1ccc(Nc2nc(CN3CCC(C(=O)OCC)CC3)cs2)cc1 [compound 319, ethyl 1-((2-(4-(octyloxy)phenylamino)thia-zol-4-yl)methyl)piperidine-4-carboxylate]
Second: CCCCCCCCOc1ccc(Nc2nc(CN3CCC(N(C)C)C3)cs2)cc1 (stereo not drawn) [compound 317, 4-((3-(dimethylamino)pyrrolidin-1-yl)methyl)-N-(4-(octyloxy)phenyl)thiazol-2-amine]
The EC50 of the first is higher: 1000 to 10000 nM for the first, less than 1000 nM for the second.

First: CCCCCCCCOc1ccc(Nc2nc(Cc3cccnc3)cs2)cc1 [compound 501, N-(4-(octyloxy)phenyl)-4-((pyridin-3-yl)methyl)thiazol-2-amine]
Second: CCCCCCCOc1ccc(Nc2nc(-c3ccc(-c4ccccn4)s3)cs2)cc1 [compound 399, N-(4-(heptyloxy)phenyl)-4-(5-(pyridin-2-yl)thiophen-2-yl)thiazol-2-amine]
The EC50 of the first is higher: 1000 to 10000 nM for the first, less than 1000 nM for the second. The second is the more potent here.

Same assay, conditions: Hepatitis C virus, replicon based assay of HCV replication inhibition; Table IV; read-out: Activity

`Cc1ccc(Nc2nc(-c3cccnc3)cs2)cc1` [compound 884, 4-(pyridin-3-yl)-N-p-tolylthiazol-2-amine] and `CCN(CC)C(=O)c1ccc(Nc2nc(-c3cccnc3)cs2)cc1` [compound 820, 4-(4-(pyridin-3-yl)thiazol-2-ylamino)-N,N-diethylbenzamide] cannot be ordered by EC50: greater than 10000 nM for the first, greater than 10000 nM for the second.

`Cc1ccc(CCCCOc2ccc(Nc3nc(-c4ccc(CC(=O)O)s4)cs3)cc2C(F)(F)F)cc1` [compound 851, 2-(5-(2-(4-(4-p-tolylbutoxy)-3-(trifluoromethyl)phenylamino)thiazol-4-yl)thiophen-2-yl)acetic acid] and `CCCCCCCCOc1ccc(Nc2nc(-c3cnc(N)nc3)cs2)cc1C(F)(F)F` [compound 810, 5-(2-(3-(trifluoromethyl)-4-(octyloxy)phenylamino)thiazol-4-yl)pyrimidin-2-amine] cannot be ordered by EC50: less than 1000 nM for the first, less than 1000 nM for the second.

Compared with `c1cncc(-c2csc(Nc3ccc4[nH]ncc4c3)n2)c1` [compound 755, N-(4-(pyridin-3-yl)thiazol-2-yl)-1H-indazol-5-amine], `CCCCCCCN(C)Cc1ccc(Nc2nc(-c3cccnc3)c(C)s2)cc1C(F)(F)F` [compound 863] is lower in EC50: greater than 10000 nM for the first, 1000 to 10000 nM for the second.

`COc1ncc(-c2csc(Nc3ccc(OC/C=C(\C)CCC=C(C)C)c(C(F)(F)F)c3)n2)cn1` [compound 775, N-(4-((E)-3,7-dimethylocta-2,6-dienyloxy)-3-(trifluoromethyl)phenyl)-4-(2-methoxypyrimidin-5-yl)thiazol-2-amine] and `CCCCCCCCOc1ccc(Nc2nc(C(=O)CSC3=NC(=O)CC(=O)N3)cs2)cc1C(F)(F)F` [compound 808, 2-(2-(2-(3-(trifluoromethyl)-4-(octyloxy)phenylamino)thiazol-4-yl)-2-oxoethylthio)pyrimidine-4,6(1H,5H)-dione] cannot be ordered by EC50: less than 1000 nM for the first, less than 1000 nM for the second.

Same assay, conditions: replicon based assay of HCV replication inhibition; Table II; read-out: Activity

In the case of `CCCCCCCCOc1ccc(Nc2nc(-c3ccc(C(=O)N(C)C)nc3)cs2)cn1` [compound 471, 5-(2-(6-(octyloxy)pyridin-3-ylamino)thiazol-4-yl)-N,N-dimethylpyridine-2-carboxamide], the EC50 is reported as less than 1000 nM.
